Results on five compounds are retold here after patent publication US4997835A, “Substituted 2-acylpyridine-α-(N)-hetarlyhydrazones and medicaments containing the same” (priority 1987, dated 1991).

The nature of one series: in vivo. The note with it: sc. The procedure:
(§1) The acute toxicity after a single administration of PH 22, pyridine-2-aldehyde-thiosemicarbazone (Py-2-TSC), as well as Conteben (thiacetazone, 4-acetylaminobenzaldehyde-thiosemicarbazone) was determined according to H. J. Hapke, Toxikologie fur Veterinarmediziner, F. Enke Verlag, Stuttgart 1975. The test animals used were Wistar rats and NMRI white mice.

For a further series, the system named is Mycobacterium lufu. As to the kind of experiment: Minimum inhibiting concentration, M. lufu L 209. The format is cell-based. The note with it: Mycobacterium lufu.
Series [1] concerns Mycobacterium tuberculosis H 37 RV. The series can be described thus: Minimum inhibiting concentration, M. tuberculosis H37RV. The format is cell-based. The note with it: Mycobacterium tuberculosis; M. tub. H37RV. On the procedure: The minimum inhibiting concentration of the commercially available and inventive substances given in Table 2 was determined according to the known standard process ("Methods for sensitivity testing of bacterial infectious germs", DIN 58940, part 5).
The determination was carried out on the following bacterial cultures:
2. Mycobacterium tuberculosis H 37 RV, FIB 2-85 JS
For culturing the bacterial cultures use was made of nutrient substrates according to Gottsacker and Lowenstein Jensen and culture media according to Lockemann or Dubos-Davis (cf. "Detection processes for mycobacteria from test material, III, culture medium formulations for culturing tuberculosis bacteria", 1978, Publisher: Deutsches Zentralkomitee zur Bekampfung der Tuberculose, Poppenhusenstrasse 14c, 2000 Hamburg 60).
In each case 5×10^-3 to 5×10^-5 mg, based on the wet weight, of the mycobacterial strains were incubated in 2 ml of culture fluid (Lockemann +0.5 wt/vol. % bovine serum albumen fraction 5) at 31° C. with a graded concentration of the particular inhibitor (dilution series). The culture tubes were read off after 8 to 15 days, as a function of the bacterial strain.
The MIC is the inhibitor concentration in μMol/l at which no propagation of the sewn cells is observed.

Series [2] has as its system Mycobacterium marinum SN 1254. The series can be described thus: Minimum inhibiting concentration, M. marinum SN1254. The format is cell-based. Particulars: M. marin. SN1254, read-out: Minimum inhibiting concentration.
Series [3] deals with Mycobacterium smegmatis ATCC 607. As to the kind of experiment: Minimum inhibiting concentration, M. smegmatis ATCC 607. The format is cell-based. The note with it: Mycolicibacterium smegmatis, ATCC607; M. smegm. ATCC 607; read-out: Minimum inhibiting concentration.
Series [4] has as its system Mycobacterium avium SN 304. The series can be described thus: Minimum inhibiting concentration, M. avium SN 304. The format is cell-based. Particulars: SN304, M. avium SN 304, read-out: Minimum inhibiting concentration.
In series [5] the test system is Mycobacterium avium Patient Strain (Birk). The series can be described thus: Minimum inhibiting concentration, M. avium Patient Strain (Birk). The format is cell-based. The note with it: Mycobacterium avium; M. avium Patient str.; read-out: Minimum inhibiting concentration.
For series [6], the system named is Indochina W-2 (parasitic malaria strain). The series can be described thus: Growth of malaria strain Indochina W-2. The format is cell-based. The note with it: for IC90: read-out: I90. The source says:
(§2) Determination of the semimaximum inhibiting concentration (I50) of typical representatives of the inventive compounds for the growth of parasitic malaria strains:
(§3) The determination took place according to the standard process (cf. WHO determination process).
(§4) The process according to Example 35 was repeated with the difference that the semimaximum inhibiting concentration of combinations of the inventive compound PH 22 with (2), (3) inhibitors of dihydrofolic acid reductase, (4) inhibitors of folate synthase and dihydrofolic acid reductase and (5), (6) inhibitors of DNA-synthesis were determined.

Series [7] concerns Sierra Leone D-6 (parasitic malaria strain). The series can be described thus: Growth of malaria strain Sierra Leone D-6. The format is cell-based. The note with it: for IC90: read-out: I90.
From the text: as §2, §3, §4

Series [8] relates to human mammary tumour cell line MDA-MB231. As to the kind of experiment: Inhibition of cellnumber increase. Particulars: MDA-MB-231, read-out: 50% Inhibition of cellnumber increase, I50. The format is cell-based. On the procedure: (§5) The semimaximum inhibition of cellnumber increase and thymidine incorporation into DNA was determined on the […], human mammary tumour cell line MDA-MB231 (cf. H. D. Soule et al, J. Nat. Cancer Inst., 51, p.1409, 1973) according to the method described by H. Seidenberger, G. Kranzfelder, S. Wappes, H. Schonenberger, W. Beck and M. Girth, Arch. Pharm. 314, 955, 1981 and M. Lippman, M. E. Monaco and G. Bolan, Cancer Res. 37, 1901, 1977.

For series [9] the test system is unchanged. The series can be described thus: Inhibition of thymidine incorporation into DNA. Particulars: MDA-MB-231, read-out: 50% Inhibition of thymidine incorporation. The format is cell-based. On the procedure:
as §5
(Incorporation of labelled thymidine or its analogues reports DNA synthesis.)

A further series deals with lymphatic leukaemia P388. Particulars: C. Pellerano et al, Il Farmaco 1985; cited from earlier work.
For series [10] the following is noted: K. C. Agrawal et al, Biochem. Pharmacol. 1974; cited from earlier work.
For series [11] the following is noted: Mouse i.p.; Cancer Res. 25, 1454 (1965); cited from earlier work.
The conditions of series [12]: mouse, in vivo. On the procedure: as §1
In series [13] the test system is M. leprae. As to the kind of experiment: In vitro propagation of M. leprae, thymidine incorporation. The format is cell-based. The note with it: Mycobacterium leprae, read-out: % Reduction Thymidine incorporation.
Experimental: The inhibiting action was determined as a reaction of the thymidine absorption and the ATP content in M. Leprae suspensions, in the manner described by A. M. Dhople, Med. Sci. Res., 15, p.
Series [14] concerns M. leprae. The series can be described thus: Propagation of M. leprae in mouse paws. The format is in vivo. The procedure: The therapeutic action was determined as a reduction of the number of acid-resistant bacteria in the mouse paw according to C. C. Shepard, J. Experim. Met., 112, p. 445, 1960.
It is possible to detect the synergistic effect of the combinations, even under in vivo conditions.

Where [15] appears, read: read-out: IC50 in the case of combinations.

In brackets after ≈: the same amount, converted by molar mass. Like-named read-outs stand apart in the source and are kept apart here. Where only a bound is given, the exact number is not on record here.

In the case of `C(=NNc1ccccn1)c1ccccn1` [PH 22, pyridine-2-aldehyde-2'-pyridylhydrazone], the LD50 in the series “in vivo” (rat) is over 2000 mg/kg. The MIC is 32 µM (≈ 6.34 µg/mL) in the series with Mycobacterium lufu; 97 µM (≈ 19.2 µg/mL) in [1]; 77 µM (≈ 15.3 µg/mL) in series [2]; 20 µM (≈ 3.96 µg/mL) in [3]; 30 µM (≈ 5.95 µg/mL) in [4]; 29 µM (≈ 5.75 µg/mL) in series [5]. Moreover, the IC50 in [6] (read-out: I50) is 2000 nM; in [6] (setting [15]), 0.39 µg/mL; in [7] (read-out: I50) it was 300 nM; in [7] (setting [15]) it was 0.0556 µg/mL; in series [8] it was 151 nM; in series [9] it was 118 nM. The results for the IC90 in series [6] and in series [7] were 2500 nM and 1300 nM, respectively.

For `c1ccc(C(=NNc2ccccn2)c2ccccn2)cc1` [PH 22-9, 2-benzoyl pyridine-2'-pyridylhydrazone], the MIC against Mycobacterium lufu stood at 5.5 µM (≈ 1.51 µg/mL); in [1], 13 µM (≈ 3.57 µg/mL); in series [2], 18.3 µM (≈ 5.02 µg/mL); in series [3], 36.5 µM (≈ 10 µg/mL); in series [5], 73 µM (≈ 20 µg/mL). For the same compound, the IC50 came to 1500 nM in series [6] (read-out: I50), 1800 nM in series [7] (read-out: I50), 97 nM in [8] and 89 nM in series [9]. The IC90 in series [6] stood at 5300 nM; in [7], 2200 nM. Further, in the series with lymphatic leukaemia P388, the “in vivo treatment of lymphatic leukaemia P388” value is “ineffective”.

For `NC(=S)NN=Cc1ccc(O)cn1` [5-hydroxypyridine-2-(carbox)-aldehyde-thiosemicarbazone], the gastrointestinal toxicity entry in [10] is reported as “serious gastrointestinal toxicity”.

On to `NC(=S)NN=Cc1ccccn1` [Py-2-TSC, pyridine-2-aldehyde-thiosemicarbazone, reference compound], for which the LD50 in “in vivo” (Rat, subc., read-out: LD50) is 30 mg/kg; in series [11], 40 mg/kg body weight. The MIC in the series on Mycobacterium lufu stood at 40 µM (≈ 7.21 µg/mL).

As for `Clc1cc(NN=Cc2ccccn2)ncn1` [PH 22-26, pyridine-2-aldehyde-6'-chloro-4'-pyrimidylhydrazone], in series [12], the toxic effects entry is “No toxic effects were observed”. Besides, the MIC in the series with Mycobacterium lufu was found to be 1.3 µM (≈ 0.304 µg/mL); in series [1], 6.2 µM (≈ 1.45 µg/mL); in series [2], 12.9 µM (≈ 3.01 µg/mL); in series [3] it was 25.7 µM (≈ 6.01 µg/mL). Moreover, the inhibition of growth at 50000 µg/mL in the series on M. leprae [13] (50 mg/ml) was 30%. For the same compound, in the series with M. leprae [13] (100 mg/ml), the inhibition of growth at 100000 µg/mL came out at 48%. Further, the “% Inhibition of propagation of M. leprae in mouse paws” value with M. leprae [14] (0.1% in feed, 4 months) is 40%; in the series with M. leprae [14] (0.1% in feed, 6.5 months), 69%; in the series with M. leprae [14] (0.1% in feed, 8.5 months) it was 77%; in the series with M. leprae [14] (0.1% in feed, 12 months) it was 74%; with M. leprae [14] (two months in feed, DDS 0.0001%, Rifampicin 0.001%, K-130 0.01%, Brodimoprim 0.01%, PH 22-26 0.05%) it was 0%. The “M. leprae/paw, treated mice” value with M. leprae [14] (0.1% in feed, 4 months (control 0.468)) is 0.283 × 10^6; in the series on M. leprae [14] (0.1% in feed, 8.5 months (control 2.978)) it was 0.684 × 10^6; in the series with M. leprae [14] (0.1% in feed, 12 months (control 3.682)), 0.945 × 10^6. The results for the IC50 in [6] (read-out: I50) and in series [7] (read-out: I50) were 3500 nM and 2000 nM, respectively. Besides, the IC90 in series [6] turned out to be 6200 nM; in series [7], 3000 nM.
